# Source: ChEMBL document CHEMBL1201862, “PubChem BioAssay data set” (2004)
#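 Protocol summary: plate cells (96-well), add compound at 5 concentrations, incubate 48 h, interpolate endpoints linearly. Abbreviation: GI50, concentration required for 50% inhibition of growth.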 Calls of active or inactive are those of the source. Cut-off read from the data, not from the text of the source: active = GI50 up to about 1.1 µM and inactive = higher.
# Key:
# Assay in all cases: NCI tumour cell line growth inhibition, 48 h
# [1] = tested on: T47D
# [2] = tested on: DMS-114
# [3] = tested on: HOP-18
# [4] = tested on: DMS-273
# [5] = tested on: KM-20L2
# [6] = tested on: XF498
# [7] = tested on: LXFL 529
# [8] = tested on: SNB-78
# [9] = tested on: RXF 631
smiles,measurement,setting,value
CC(=O)OCC1(C)C(O)CCC2(C)C1CCC1CC3CC12CCC3(O)CO (centres undefined),GI50,[1],> 100 µM (inactive)
CC1=NNC(=O)C1C1C=C(c2c[nH]c3ccccc23)OC1=O (centres undefined),GI50,[1],> 100 µM (inactive)
CCOC(=O)C(C(=O)c1ccccc1C(=O)OC)=P(c1ccccc1)(c1ccccc1)c1ccccc1,GI50,[1],> 10 µM (inactive)
O=CNNC(=O)Nc1cccc2ccccc12,GI50,[1],> 100 µM (inactive)
COC(=O)c1cccc(COc2ccc([N+](=O)[O-])cc2Cl)c1,GI50,[1],> 100 µM (inactive)
COc1cccc(OCC(=N/NC(=O)c2ccncc2)/N=C/c2cccnc2)c1,GI50,[1],> 100 µM (inactive)
Clc1cc(Cl)c2cc3cccc[n+]3cc2c1Cl,GI50,[1],7.64 µM (inactive)
O=CC(NC(=O)N(CCCl)N=O)C(O)C(O)C(O)CO (centres undefined),GI50,[2],1040 µM (inactive)
same,GI50,[3],> 1250 µM (inactive)
same,GI50,[4],1000 µM (inactive)
same,GI50,[5],> 1250 µM (inactive)
same,GI50,[1],679 µM (inactive)
COc1ncnc2c1cnn2Cc1cn(COCC(O)CO)nn1 (centres undefined),GI50,[1],> 100 µM (inactive)
CCCC(=O)N[C@@H](Cc1cc(I)c(O)c(I)c1)C(=O)NCCCNCCCCNCCCNC(=O)[C@@H](N)CCCN=C(N)N,GI50,[2],> 100 µM (inactive)
same,GI50,[4],27.4 µM (inactive)
same,GI50,[5],> 100 µM (inactive)
same,GI50,[6],> 100 µM (inactive)
same,GI50,[7],78 µM (inactive)
CC(C)(C)/C(=N\Nc1nc2ccccc2[nH]1)c1ccccn1,GI50,[1],21 µM (inactive)
COc1cc(OC)cc(Oc2nc3ccccc3nc2C(=O)O)c1,GI50,[1],> 100 µM (inactive)
O=C1OC(O)C(Oc2ccc(Cl)cc2)=C1Cl (centres undefined),GI50,[2],39.1 µM (inactive)
same,GI50,[4],> 100 µM (inactive)
same,GI50,[5],> 100 µM (inactive)
same,GI50,[8],> 100 µM (inactive)
same,GI50,[9],> 100 µM (inactive)
same,GI50,[7],> 100 µM (inactive)
S=C(/N=c1\sc(NCc2ccccc2)nc2sc3c(c12)CCN(N1CCc2c(sc4nc(NCc5ccccc5)s/c(=N\C(=S)NCc5ccccc5)c24)C1)C3)NCc1ccccc1,GI50,[1],21.2 µM (inactive)
O=C(CN1C(=O)c2ccccc2C1=O)C(O)CN1C(=O)c2ccccc2C1=O (centres undefined),GI50,[1],93.5 µM (inactive)
Cc1nc2c(=S)n(C)ncc2[nH]1,GI50,[1],> 100 µM (inactive)
Nc1ncnc2c1N=CN(Oc1ccccc1)N2,GI50,[2],> 100 µM (inactive)
same,GI50,[4],> 100 µM (inactive)
same,GI50,[5],> 100 µM (inactive)
same,GI50,[8],> 100 µM (inactive)
same,GI50,[6],> 100 µM (inactive)
same,GI50,[9],> 100 µM (inactive)
same,GI50,[7],> 100 µM (inactive)
CSc1ccc2c(c1)N(CCCN(C)C)c1ccccc1S2,GI50,[1],10.4 µM (inactive)
Clc1ccccc1C1=NN(c2ccccc2)C2c3cc(Br)ccc3OCC12 (centres undefined),GI50,[2],> 100 µM (inactive)
same,GI50,[3],> 100 µM (inactive)
same,GI50,[4],> 100 µM (inactive)
same,GI50,[5],> 100 µM (inactive)
same,GI50,[8],> 100 µM (inactive)
same,GI50,[6],> 100 µM (inactive)
same,GI50,[7],> 100 µM (inactive)
